From the OPERA property sets (Mansouri et al. 2018) come the findings set out here.

As a reminder, the melting point is the temperature of the solid-liquid transition. As a reminder, the boiling point is the temperature of boiling at a given pressure.

The compound `O=[N+]([O-])c1cccc2cccnc12` showed a melting point of 90 °C.
For the compound `O=C(OCC(F)(F)F)C(F)(F)F`, the boiling point is 55 °C.
In the case of `O=C1/C(=C2\Nc3c(Br)cc(Br)cc3C2=O)Nc2c(Br)cc(Br)cc21`, the log10 vapour pressure (mmHg) was -11.1.
In turn, `c1ccc(Oc2nc(Oc3ccccc3)nc(Oc3ccccc3)n2)cc1` had a melting point of 234 °C.
`CCOC(=O)c1ccc(Cl)cc1` showed a boiling point of 238 °C.
Regarding `CCOCC(=O)Cl`, the boiling point stood at 125 °C.
The compound `CCOC(=O)C(C(C)=O)C(C)C` (stereo not given) came in with a boiling point of 201 °C.
`CCS(=O)(=O)CC` showed a boiling point of 248 °C and a melting point of 73.5 °C.
As for `OC1CCCC1`, the boiling point was 140 °C, the log10 vapour pressure (mmHg) was determined as 0.396 and the melting point was -19 °C.
The compound `CCOC(=O)c1cccc2ccccc12` had a boiling point of 310 °C.
With `Cc1cc2c(cc1S(N)(=O)=O)S(=O)(=O)CCC2`, the melting point stood at 236 °C.
For `O=CCO`, the log10 Henry constant (atm·m³/mol) is -7.62 and the melting point turned out to be 97 °C.
`CN(C)CC#N` gave a boiling point of 138 °C.
With `CCc1cc(C)ccc1C`, the boiling point amounted to 187 °C, the log10 biodegradation half-life (days) was found to be 0.477, the log10 vapour pressure (mmHg) was -0.0272 and the melting point was -53.7 °C.
Consider `CC(C)(c1ccccc1)c1ccc(Nc2ccc(C(C)(C)c3ccccc3)cc2)cc1`, for which the ready biodegradability result is listed as “not readily biodegradable”.
In turn, `c1ccc(Cn2cncn2)cc1` registered a melting point of 49 °C.
Regarding `CCN(CC)C(=O)Cl`, the boiling point turned out to be 186 °C and the melting point is -32 °C.
Turning to `O=C(OCc1ccccc1)c1ccccc1C(=O)OCc1ccccc1`, the melting point is 44 °C.
`Nc1ccc2c(n1)[nH]c1ccccc12` gave a melting point of 202 °C.
`OCc1ccc(-c2ccccc2)cc1` registered a log10 Koc (L/kg) of 2.54.
Compound `C1CC12CC2` returned a boiling point of 39 °C, a log10 vapour pressure (mmHg) of 2.66 and a melting point of -135 °C.
Turning to `Clc1ccc(Cl)c(Br)c1`, the boiling point was 226 °C and the melting point came out at 35 °C.
In turn, `c1cc2c3c(c1)CCCN3CCC2` had a melting point of 40 °C.
Take `CCCCOC(=O)c1ccccc1C(=O)OC1CCCCC1`: the log10 vapour pressure (mmHg) is -5.32.
In turn, `Clc1ccc2nccnc2c1` yielded a melting point of 64 °C.
Compound `CCCCCCCCCCCCCCN` showed a boiling point of 291 °C, a log10 vapour pressure (mmHg) of -3.01 and a melting point of 83.1 °C.
In the case of `Nc1ccccn1`, the boiling point stood at 211 °C, the melting point is 57.5 °C and the ready biodegradability result was “not readily biodegradable”.
As to `Clc1cc(Cl)c(Cl)c(-c2cc(Cl)c(Cl)c(Cl)c2Cl)c1`, the log10 Henry constant (atm·m³/mol) was -5.89.
Regarding `Nc1nc(N)nc(-c2cc(Cl)ccc2Cl)n1`, the melting point amounted to 268 °C.
`O=Cc1ccccc1O` gave a boiling point of 197 °C, a log10 vapour pressure (mmHg) of -0.227 and a melting point of -7 °C.
For `c1ccc(-c2ccc(-c3ccccc3)cc2)cc1`, the boiling point was 376 °C, the log10 vapour pressure (mmHg) is -7, the melting point amounted to 210 °C and the ready biodegradability result is reported as “not readily biodegradable”.
In turn, `O=C(O)Cc1c(-c2ccccc2)c(-c2ccccc2)nn1-c1ccccc1` displayed a melting point of 200 °C.
Compound `NC(=O)c1ccc(O)cc1` came in with a melting point of 162 °C.
`CC(CC1CCCCC1)C1CCCCC1` (stereo not given): the boiling point worked out at 284 °C and the melting point is -22 °C.
With `CCCCCCN(C)C(=O)COC(=O)c1ccccc1`, the melting point was found to be 100 °C.
Regarding `OC(c1ccccc1)(c1ccccc1)C(O)(c1ccccc1)c1ccccc1`, the melting point was found to be 182 °C.
`OCCCCCCCCCCF` registered a melting point of 22 °C.
Take `CC(O)CC(F)(F)F` (stereo not given): the boiling point is 99.8 °C.
`C/C=C(\C)C(=O)O[C@H]1C[C@@H](OC(C)=O)[C@@]2(C(=O)OC)CO[C@H]3[C@@H](O)[C@@](C)([C@]45O[C@@]4(C)[C@H]4C[C@@H]5O[C@@H]5OC=C[C@@]54O)[C@H]4[C@]1(CO[C@]4(O)C(=O)OC)[C@@H]32`: the melting point is 156 °C.
In the case of `CC(C)(C)OOC(C)(C)c1ccc(C(C)(C)OOC(C)(C)C)cc1`, the ready biodegradability result is “not readily biodegradable”.
In the case of `NNC(=O)c1ccc(N)cc1O`, the melting point is 195 °C.
The compound `C[Si](C)(C)[Si](C)(C)C` gave a boiling point of 114 °C and a melting point of 13.5 °C.
As for `CCCCCCCCCCI`, the log10 vapour pressure (mmHg) was -1.85 and the melting point was -16.3 °C.
`O=c1ccc2cc3ccoc3cc2o1` yielded a melting point of 164 °C.
Consider `CCCCOCCOP(=O)(OCCOCCCC)OCCOCCCC`, for which the melting point is -70 °C and the ready biodegradability result is on record as “not readily biodegradable”.
Turning to `CCOC(=O)CCCCCCCC(=O)OCC`, the boiling point came to 292 °C and the melting point was -18.5 °C.
`C=C(C)[C@H]1CCC(C)=C[C@@H]1c1c(O)cc(CCCCC)cc1O`: the melting point came to 67 °C.
Turning to `FC(F)(F)C1(F)C(F)(F)C(F)(F)C(F)(F)C(F)(C(F)(F)F)C1(F)F` (stereo not given), the boiling point was found to be 102 °C and the melting point was -70 °C.
For `Oc1ccccc1C1CCCC1`, the melting point was determined as 34.5 °C.
In turn, `COc1ccc(N=[N+]([O-])c2ccc(OC)cc2)cc1` gave a melting point of 127 °C.
On the same count and under the same terms, with `NC(=O)C(Br)(Br)Br` the figure was 122 °C.
In turn, `CCOC(=O)NCCOc1ccc(Oc2ccccc2)cc1` yielded a log10 Koc (L/kg) of 3, a log10 vapour pressure (mmHg) of -8.2 and a melting point of 53.2 °C.
Turning to `CC(Br)C(C)(C)Br` (stereo not given), the melting point amounted to 7 °C.
Take `Cc1ccc(S(=O)(=O)N(C)N=O)cc1`: the melting point was 60 °C.
With `O=C1/C(=C2\Nc3ccccc3C2=O)Nc2ccccc21`, the ready biodegradability result is on record as “not readily biodegradable”.
Consider `C[C@]12CC[C@H]3[C@@H](CCC4=CC(=O)C=C[C@@]43C)[C@@H]1CC[C@H]2O`, for which the melting point was found to be 165 °C.
The compound `CCOCCN(Cc1ccc(CN(CCOCC)C(=O)C(Cl)Cl)cc1)C(=O)C(Cl)Cl` returned a melting point of 140 °C.
